Structures can show the parent of a compound that is named as a salt.
Legend:
Type in all cases: in vivo, Vitis vinifera
[1] = tested on: Crimson Seedless grape clusters; test: Field study, Example 1: anthocyanin content of berries harvested about four weeks after treatment; conditions: for Total Anthocyanin Content: berries harvested about four weeks after treatment
Protocol: (§1) A field study was conducted in California to compare the efficacy of S-ABA to 3′-methyl-(S)-ABA in promoting red grape coloration. S-ABA and 3′-methyl-(S)-ABA were formulated as aqueous solutions of the corresponding potassium salt to the desired concentrations with the final pHs being between 6.5 and 7.2. Individual Crimson Seedless grape clusters were selected and tagged, with 20 tagged clusters per treatment. The treatments were applied as cluster-directed sprays using a trigger sprayer at 15 to 20 mL per cluster to ensured good coverage of the grapes. Application of 15 to 20 milliliters per cluster simulates application of about 109 gallons per acre directed at the approximately 40 clusters per vine in a vineyard with 518 vines per acre. Based on these estimates, Applicant determined the approximate grams per acre. The equation is as follows: 20 ml/cluster×40 cluster/vine=800 ml/vine×518 vine/acre=(414,400 ml/acre)/(1000 ml/liter)=414 liters/acre. An estimation of grams per acre was made by multiplying the mg per cluster with 20,720 clusters/acre (40 clusters/vine×518 vines/acre=20,720 clusters/acre).
(§2) Periodically after the treatments, the grape clusters were evaluated for color development by visual ratings over a six-week period. The coloration was graded on a 1 to 8 grading scale, where a rating of 1 has very little or no red color and a rating of 8 has a deep or dark red color. The percentages of berries that reached marketable red coloration for each cluster were averaged and recorded for each treatment. Additionally, representative berries from each treatment group were harvested about four weeks after treatment and analyzed for anthocyanin content.

Crimson Seedless grapes = test: Trial, Example 2: visual color rating of grape clusters on a 1 to 8 scale; parameters: key to Color Ratings: 1 = little/no red color, 8 = deep/dark red color; conditions: for Color Ratings: applied day 0 and day 11, 1 to 8 grading scale
Protocol: Another trial was conducted in California on Crimson Seedless grapes to compare the efficacy of S-ABA, 3′-methyl-(S)-ABA and 3′-propargyl-(S)-ABA in promoting coloration. All three compounds were formulated as aqueous solutions of the corresponding potassium salt to the desired concentrations, with the final pHs being between 6.5 and 7.2. Individual Crimson Seedless grape clusters were selected and tagged, with 20 tagged clusters per treatment. The solutions were applied as cluster-directed sprays using a trigger sprayer at 15 to 20 milliliters per cluster which ensured good coverage of the grapes. The treatments were applied on day 0 and day 11 of the trial. Periodically during the trial, the grape clusters were evaluated for color development by visual ratings over a six-week period and the coloration was graded on a 1 to 8 grading scale, where a rating of 1 has very little or no red color and a rating of 8 has a deep or dark red color.

[2] = tested on: Crimson Seedless grape clusters; test: Field study, Example 1: visual rating of red grape coloration, % of berries with marketable color; conditions: for activity relative to S-ABA for enhancing grape coloration: from % marketable color data, 40 ppm vs 400 ppm S-ABA
Protocol: as §1, §2

Compound: CC1=C(C)[C@](O)(/C=C/C(C)=C\C(=O)O)C(C)(C)CC1=O [3′-methyl-(S)-ABA, K^+ salt, (2Z,4E)-5-((S)-1-hydroxy-2,3,6,6-tetramethyl-4-oxocyclohex-2-en-1-yl)-3-methylpenta-2,4-dienoic acid]
- Total Anthocyanin Content ([1]; 0.3-0.4 mg/cluster (20 ppm, 15-20 mL)): 68 mg/L
- Total Anthocyanin Content ([1]; 0.6-0.8 mg/cluster (40 ppm, 15-20 mL)): 78 mg/L
- Total Anthocyanin Content ([1]; 3-4 mg/cluster (200 ppm, 15-20 mL)): 181 mg/L
- Total Anthocyanin Content ([1]; 6-8 mg/cluster (400 ppm, 15-20 mL)): 247 mg/L
- activity relative to S-ABA in promoting Crimson Seedless grape coloration ([1]; from anthocyanin analysis of Table 2): approximately 10 times
- calculated relative potency versus S-ABA ([1]; rate of S-ABA needed to achieve the same effect): 8.4 times
- Color Ratings (Crimson Seedless grapes; 4 ppm, 0.06-0.08 mg/cluster, 1.2-1.6 g/acre, 3 DAT): 1
- Color Ratings (Crimson Seedless grapes; 4 ppm, 0.06-0.08 mg/cluster, 1.2-1.6 g/acre, 10 DAT): 1.6
- Color Ratings (Crimson Seedless grapes; 4 ppm, 0.06-0.08 mg/cluster, 1.2-1.6 g/acre, 14 DAT): 1.9
- Color Ratings (Crimson Seedless grapes; 4 ppm, 0.06-0.08 mg/cluster, 1.2-1.6 g/acre, 21 DAT): 2.4
- Color Ratings (Crimson Seedless grapes; 4 ppm, 0.06-0.08 mg/cluster, 1.2-1.6 g/acre, 31 DAT): 2.7
- Color Ratings (Crimson Seedless grapes; 4 ppm, 0.06-0.08 mg/cluster, 1.2-1.6 g/acre, 41 DAT): 2.8
- Color Ratings (Crimson Seedless grapes; 20 ppm, 6-8 g/acre, 3 DAT): 1.3
- Color Ratings (Crimson Seedless grapes; 20 ppm, 6-8 g/acre, 10 DAT): 1.7
- Color Ratings (Crimson Seedless grapes; 20 ppm, 6-8 g/acre, 14 DAT): 2.3
- Color Ratings (Crimson Seedless grapes; 20 ppm, 6-8 g/acre, 21 DAT): 2.9
- Color Ratings (Crimson Seedless grapes; 20 ppm, 6-8 g/acre, 31 DAT): 3.5
- Color Ratings (Crimson Seedless grapes; 20 ppm, 6-8 g/acre, 41 DAT): 3.5
- Color Ratings (Crimson Seedless grapes; 40 ppm, 0.6-0.8 mg/cluster, 12-16 g/acre, 3 DAT): 1.1
- Color Ratings (Crimson Seedless grapes; 40 ppm, 0.6-0.8 mg/cluster, 12-16 g/acre, 10 DAT): 1.3
- Color Ratings (Crimson Seedless grapes; 40 ppm, 0.6-0.8 mg/cluster, 12-16 g/acre, 14 DAT): 2.7
- Color Ratings (Crimson Seedless grapes; 40 ppm, 0.6-0.8 mg/cluster, 12-16 g/acre, 21 DAT): 3.9
- Color Ratings (Crimson Seedless grapes; 40 ppm, 0.6-0.8 mg/cluster, 12-16 g/acre, 31 DAT): 4.7
- Color Ratings (Crimson Seedless grapes; 40 ppm, 0.6-0.8 mg/cluster, 12-16 g/acre, 41 DAT (end of six-week evaluation)): 5.5
- potency in promoting red color development compared with another compound (Crimson Seedless grapes; Crimson Seedless grapes): more effective than S-ABA
- red color development in comparison with the untreated control (Crimson Seedless grapes; six-week evaluation period): dose-dependent accelerated red color development
- coloration effect compared with 6 to 8 mg per cluster (400 ppm) of S-ABA ([2]; 0.6 to 0.8 mg per cluster (40 ppm, 15 to 20 mL)): even more efficacious
- Coloring Ratings, % of the berries with marketable color ([2]; 20 ppm, 0.3-0.4 mg/cluster, 6-8 grams/acre, 7 DAT): 34%
- Coloring Ratings, % of the berries with marketable color ([2]; 20 ppm, 0.3-0.4 mg/cluster, 6-8 grams/acre, 14 DAT): 67%
- Coloring Ratings, % of the berries with marketable color ([2]; 20 ppm, 0.3-0.4 mg/cluster, 6-8 grams/acre, 27 DAT): 79%
- Coloring Ratings, % of the berries with marketable color ([2]; 20 ppm, 0.3-0.4 mg/cluster, 6-8 grams/acre, 33 DAT): 85%
- Coloring Ratings, % of the berries with marketable color ([2]; 20 ppm, 0.3-0.4 mg/cluster, 6-8 grams/acre, 43 DAT): 89%
- Coloring Ratings, % of the berries with marketable color ([2]; 40 ppm, 0.6-0.8 mg/cluster, 12-16 grams/acre, 7 DAT): 52%
- Coloring Ratings, % of the berries with marketable color ([2]; 40 ppm, 0.6-0.8 mg/cluster, 12-16 grams/acre, 14 DAT): 83%
- Coloring Ratings, % of the berries with marketable color ([2]; 40 ppm, 0.6-0.8 mg/cluster, 12-16 grams/acre, 27 DAT): 92%
- Coloring Ratings, % of the berries with marketable color ([2]; 40 ppm, 0.6-0.8 mg/cluster, 12-16 grams/acre, 33 DAT): 95%
- Coloring Ratings, % of the berries with marketable color ([2]; 40 ppm, 0.6-0.8 mg/cluster, 12-16 grams/acre, 43 DAT): 97%
- Coloring Ratings, % of the berries with marketable color ([2]; 200 ppm, 3-4 mg/cluster, 60-80 grams/acre, 7 DAT): 72%
- Coloring Ratings, % of the berries with marketable color ([2]; 200 ppm, 3-4 mg/cluster, 60-80 grams/acre, 14 DAT): 89%
- Coloring Ratings, % of the berries with marketable color ([2]; 200 ppm, 3-4 mg/cluster, 60-80 grams/acre, 27 DAT): 95%
- Coloring Ratings, % of the berries with marketable color ([2]; 200 ppm, 3-4 mg/cluster, 60-80 grams/acre, 33 DAT): 95%
- Coloring Ratings, % of the berries with marketable color ([2]; 200 ppm, 3-4 mg/cluster, 60-80 grams/acre, 43 DAT): 100%
- Coloring Ratings, % of the berries with marketable color ([2]; 400 ppm, 6-8 mg/cluster, 120-160 grams/acre, 7 DAT): 76%
- Coloring Ratings, % of the berries with marketable color ([2]; 400 ppm, 6-8 mg/cluster, 120-160 grams/acre, 14 DAT): 98%
- Coloring Ratings, % of the berries with marketable color ([2]; 400 ppm, 6-8 mg/cluster, 120-160 grams/acre, 27 DAT): 99%
- Coloring Ratings, % of the berries with marketable color ([2]; 400 ppm, 6-8 mg/cluster, 120-160 grams/acre, 33 DAT): 99%
- Coloring Ratings, % of the berries with marketable color ([2]; 400 ppm, 6-8 mg/cluster, 120-160 grams/acre, 43 DAT): 99%
- marketable coloration ([2]; 400 ppm, 6 to 8 mg per cluster, 15 to 20 mL, in two weeks): ~90%
- activity relative to S-ABA for enhancing grape coloration [2]: approximately 10 times
- activity relative to S-ABA for enhancing grape coloration ([2]; listed as 3′-methyl-(S)-abscisic acid): ten times as effective as S-ABA

Source: US20160338351A1, “(S)-ABSCISIC ACID DERIVATIVES FOR ENHANCED GRAPE COLORATION” (Valent BioSciences Corporation, priority 2015, published 2016)
